The nature of data set [1]: Inhibition of Influenza A virus (A/Puerto Rico/8/1934(H1N1)) neuraminidase H259Y mutant using 4-MU-NANA as substrate preincubated for 10 mins followed by substrate addition measured after 1 hr by fluorescence assay.
Data set [2] has as its system Influenza A virus. Briefly: Antiviral activity against Influenza A virus (A/Puerto Rico/8/1934(H1N1)) harboring wild type neuraminidase assessed as inhibition of viral replication preincubated for 36 hrs followed by reinfection in new monolayer of MDCK cells every 1 hr for 12 hrs. The class given is functional.
Data set [3] can be described thus: Antiviral activity against Influenza A virus (A/Hong Kong/498/97(H3N2)) harboring wild type neuraminidase infected in MDCK cells assessed as inhibition of viral replication preincubated for 36 hrs followed by reinfection in new monolayer of MDCK cells every 1 hr for 24 hrs. It counts as functional, cell-based.
A further data set is described as follows: in vitro. The note with it: dog, MDCK cells.
Data set [4] relates to Influenza A virus. The class given is functional, cell-based, A/Puerto Rico/8/1934(H1N1).

pEC50, pIC50: −log10 of the molar value. A value given as a limit tells only on which side of the number the result lay.

Results on 17 compounds are retold here after ChEMBL document CHEMBL4024722, “Discovery of acylguanidine oseltamivir carboxylate derivatives as potent neuraminidase inhibitors” (Bioorg Med Chem, 2017).

The pIC50 is the negative decadic logarithm of the IC50, by convention in mol/L. Low values mean a high IC50, high ones a low IC50. Take `CCC(CC)O[C@@H]1C=C(C(=O)O)C[C@H](NC(=N)NC(=O)Cc2ccc(C)cc2)[C@H]1NC(C)=O`: the pIC50 in data set [1] was 6.88.
The same measure, in the same setting: the same measure for `CCC(CC)O[C@@H]1C=C(C(=O)O)C[C@H](NC(=N)NC(=O)c2cccc(C)c2)[C@H]1NC(C)=O`: less than 6.00.
As a reminder, the pEC50 is the negative decadic logarithm of the EC50, by convention in mol/L. On to `CCC(CC)O[C@@H]1C=C(C(=O)O)C[C@H](NC(=N)NC(=O)Cc2ccc(Br)cc2)[C@H]1NC(C)=O`, for which the pEC50 with Influenza A virus [2] is 7.89; in data set [3], 8.59; in the data set on Influenza A virus [4] it was 7.16. Further, the pIC50 in data set [1] was 7.39. Besides, the selectivity ratio in “in vitro” was greater than 14.5.
As for `CCCCC(=O)NC(=N)N[C@H]1CC(C(=O)O)=C[C@@H](OC(CC)CC)[C@@H]1NC(C)=O`, the pIC50 in data set [1] is 6.79.
For `CCC(CC)O[C@@H]1C=C(C(=O)O)C[C@H](NC(=N)NC(=O)c2ccncc2)[C@H]1NC(C)=O`, the pIC50 in data set [1] is 7.43.
As for `CCC(CC)O[C@@H]1C=C(C(=O)O)C[C@H](NC(=N)NC(=O)c2ccc([N+](=O)[O-])cc2)[C@H]1NC(C)=O`, the negative-log EC50 (pEC50) in the data set with Influenza A virus [2] is 6.80; in data set [3], 7.41; in the data set with Influenza A virus [4] it was 6.87. The same compound gave a negative logarithm of the IC50 (pIC50) in data set [1] of 7.24. In addition, in the data set “in vitro”, the selectivity ratio was greater than 7.4.
Turning to `CCC(CC)O[C@@H]1C=C(C(=O)O)C[C@H](NC(=N)NC(=O)Cc2ccc3ccccc3c2)[C@H]1NC(C)=O`, the results for the negative logarithm of the EC50 (pEC50) (in the data set on Influenza A virus [2]; in data set [3]; with Influenza A virus [4]) were 8.07, 8.40 and 7.95, respectively. For the same compound, the pIC50 in data set [1] was 7.18. Further, the selectivity ratio in the data set “in vitro” was greater than 88.6.
For the compound `CCC(CC)O[C@@H]1C=C(C(=O)O)C[C@H](NC(=N)NC(=O)CCc2ccccc2)[C@H]1NC(C)=O`, the negative logarithm of the IC50 (pIC50) in data set [1] is 6.94.
On the same count and under the same terms, next, `CCC(CC)O[C@@H]1C=C(C(=O)O)C[C@H](NC(=N)NC(=O)C(C)C)[C@H]1NC(C)=O`: 6.88.
The same measure, in the same setting: the same measure for `CCC(CC)O[C@@H]1C=C(C(=O)O)C[C@H](NC(=N)NC(=O)CCc2cccnc2)[C@H]1NC(C)=O`: 7.68.
In the case of `CCC(=O)NC(=N)N[C@H]1CC(C(=O)O)=C[C@@H](OC(CC)CC)[C@@H]1NC(C)=O`, the pEC50 in the data set with Influenza A virus [2] is 7.62; in data set [3], 8.28; in the data set with Influenza A virus [4], 7.43. Moreover, the pIC50 in data set [1] was 7.13. For the same compound, in the data set “in vitro”, the selectivity ratio was greater than 26.8.
Consider `CCC(CC)O[C@@H]1C=C(C(=O)O)C[C@H](NC(=N)NC(=O)Cc2ccccc2C)[C@H]1NC(C)=O`, for which, in data set [1], the pIC50 is 6.65.
On to `CCC(CC)O[C@@H]1C=C(C(=O)O)C[C@H](NC(=N)NC(=O)CCc2ccc(OC)c(OC)c2)[C@H]1NC(C)=O`, for which the negative-log EC50 (pEC50) in the data set on Influenza A virus [2] is 7.70; in data set [3] it was 8.25; with Influenza A virus [4], 7.64. Further, the negative-log IC50 (pIC50) in data set [1] was 7.84. Moreover, in “in vitro”, the selectivity ratio was greater than 43.4.
For `C=CCCC(=O)NC(=N)N[C@H]1CC(C(=O)O)=C[C@@H](OC(CC)CC)[C@@H]1NC(C)=O`, in that order: 7.61, 8.02, 8.14, 7.52 and greater than 139.
For the compound `CCC(CC)O[C@@H]1C=C(C(=O)O)C[C@H](NC(=N)NC(=O)CC(C)C)[C@H]1NC(C)=O`, the pIC50 in data set [1] was 6.35.
Same read-out and setting: the same measure for `CCCC(=O)NC(=N)N[C@H]1CC(C(=O)O)=C[C@@H](OC(CC)CC)[C@@H]1NC(C)=O`: 6.88; for `CCC(CC)O[C@@H]1C=C(C(=O)O)C[C@H](NC(=N)NC(=O)CCCc2ccccc2)[C@H]1NC(C)=O`: 6.66.
